The values that follow come from patent US5135910A, “Nisin compositions for use as enhanced, broad range bactericides” (The Public Health Research Institute of the City of New York, priority 1991, dated 1992).

Assay [1] deals with S. typhimurium on chicken muscle. Put plainly: bactericidal activity towards S. typhimurium on chicken muscle (unadhered cells). The assay is classed as cell-based, Salmonella typhimurium. How it is done:
(§1) All tests in the following examples were performed at 37° C. The efficacy of the enhanced broad range bactericides was determined by assaying bactericidal activity as measured by the percent bacterial survival after treatment with the bactericide. Generally, after incubation of a 10^7 cell per ml suspension of target species with the novel bactericide for specified lengths of time, bacteria were collected by centrifugation for 2 minutes. […] Surviving bacteria were determined by scoring colony forming units (CFU) after incubation for 24-48 hours at 37° C. An effective bactericide according to this invention is one which allows less than 0.1% of the initial viable count of the bacteria to survive.
Incubations were performed in either 50 mM sodium acetate, pH 5.0, or 20 mM […], pH 8.0 at 37° C.
Cubes of chicken muscle were cleansed with sodium hypochlorite and povidone iodine prior to use. To inoculate the tissue, the cubes of chicken muscle were dipped into a 10^8 cells/ml suspension of S. typhimurium in 20 mM Tris HCl, pH 8.0. Excess moisture was removed from dipped cubes by tapping. The chicken samples were placed into sufficient buffer containing the nisin composition to cover the tissue and incubated for 2 hours at 37° C. after which the tissue was removed to sufficient Phage buffer to cover the tissue. The bacteria remaining in the test solution were collected by centrifugation, washed with Phage buffer, and combined with bacteria washed from the tissue by Phage buffer. The combined samples (termed "unadhered" cells) were serially diluted and 100μl aliquots were plated for determination of surviving bacteria.
(§2) Cubes of chicken muscle were cleansed with sodium hypochlorite and povidone iodine prior to use. To inoculate the tissue, the cubes of chicken muscle were dipped into a 10^8 cells/ml suspension of S. typhimurium in 20 mM Tris HCl, pH 8.0. Excess moisture was removed from dipped cubes by tapping. The tissue was placed into sufficient buffer containing the nisin compositions to cover the tissue, and incubated for 2 hours at 37° C. after which the tissue was removed to sufficient Phage buffer to cover the tissue. The bacteria remaining in the test solution were collected by centrifugation, washed with Phage buffer, and combined with bacteria washed from the tissue by Phage buffer. The combined samples (termed "unadhered" cells) were serially diluted and 100 μl aliquots were plated for determination of surviving bacteria.
as §2, with “cleaned” for “cleansed”, “with” for “with sodium”, “50” for “20”, “sodium acetate buffer,” for “Tris HCl,”, “5.0.” for “8.0.”, “containing” for “containing the”

The test system of assay [2] is Listeria monocytogenes. Nature of the assay: bactericidal activity, percent survival, Listeria monocytogenes in Tris buffer. As to conditions: 20 mM Tris-HCl pH 8.0. The assay is classed as cell-based. The protocol:
as §1
(§3) Incubations were performed in 20 mM TrisHCl, pH 8.0 at 37° C.

In another assay the test system is Staphyloccus aureus. Nature of the assay: bactericidal activity, percent survival, Staphylococcus aureus. The format is cell-based. How it is done: as §1
Incubations were performed in 50 mM sodium acetate buffer, pH 5.0 or 20 m
TrisHCl buffer, pH 8.0 at 37° C.

In a further assay the test system is K. pneumoniae. Nature of the assay: bactericidal activity, percent bacterial survival, K. pneumoniae suspension. The format is cell-based, Klebsiella pneumoniae. As to conditions: 20 mM Tris pH 8.0, 37° C. The protocol: (§4) All tests in the following examples were performed at 37° C. The efficacy of the enhanced broad range bactericides was determined by assaying bactericidal activity as measured by the percent bacterial survival after treatment with the bactericide. Generally, after incubation of a 10^7 cell per ml suspension of target species with the novel bactericide for specified lengths of time, bacteria were collected by centrifugation for 2 minutes. […] Surviving bacteria were determined by scoring colony forming units (CFU) after incubation for 24-48 hours at 37° C.
The effect was measured as a function of percentage bacterial survival after 2 hours.

In assay [3] the test system is Streptococcus mutans. Nature of the assay: bactericidal activity, percent survival, Streptococcus mutans in Tris buffer. The assay is classed as cell-based. As to conditions: for % Survival (S. mutans kinetics): nisin 0, 1.0 mM EDTA, Tris-HCl pH 7.3.
Description: (§6) All tests in the following examples were performed at 37° C. The efficacy of the enhanced broad range bactericides was determined by assaying bactericidal activity as measured by the percent bacterial survival after treatment with the bactericide. Generally, after incubation of a 10^7 cell per ml suspension of target species with the novel bactericide for specified lengths of time, bacteria were collected by centrifugation for 2 minutes. The bacterial pellet was washed free of the bactericide with a rescue buffer, termed herein Phage buffer (50 mM Tris-HCl buffer pH 7.8, 1 mM MgSO4, 4 mM CaCl2, 0.1 M Nacl, and 0.1% gelatin), resuspended and serially diluted into Phage buffer, and 100 μl of the suspended bacteria were spread on nutrient agar plates. Surviving bacteria were determined by scoring colony forming units (CFU) after incubation for 24-48 hours at 37° C.
The suspensions were incubated for various times ranging from 0.5 to 60 minutes with the bactericides. The bactericidal efficacy of the bactericides was estimated by determining the percent survival of bacteria.
Incubations were performed in 20 mM TrisHCl, pH 7.3 at 37° C.
In another assay the test system is S. typhimurium. Put plainly: bactericidal activity, percent bacterial survival, S. typhimurium suspension. The format is cell-based, Salmonella typhimurium. As to conditions: for Percentage S. typhimurium Survival at 3 hours: 20 mM Tris pH 8.0, 37° C. How it is done: as §4
The control (Test #1) is identical to the control of Example 1 (Table 1).

A further assay concerns E. coli. Put plainly: bactericidal activity, percent bacterial survival, E. coli suspension. The assay is classed as cell-based, Escherichia coli. As to conditions: for Percentage E. coli Survival at 2 hours: 20 mM Tris pH 8.0, 37° C. The protocol:
as §4
The effects of the bactericide were measured as a function of percentage bacteria survival after 2 hours.
Incubations were performed in 20 mM Tris, pH 7.0 at 37° C.

In a further assay the test system is Coryneform bacteria. Put plainly: bactericidal activity, percent survival, axillary Coryneform bacteria. The assay is classed as cell-based. As to conditions: 20 mM Tris-HCl pH 8.0. The protocol: as §1, §3
The test system of another assay is Streptococcus agalactiae. Nature of the assay: bactericidal activity towards Streptococcus agalactiae in milk. The assay is classed as cell-based. The protocol:
as §1
However, the combination of the two agents, 0.1% monolaurin and nisin 0.2 μg/ml, is extremely potent towards S. agalactiae. […] Thus, when the application of nisin is limited by its available activity, a bactericide comprising nisin with a surfactant can be expected to be more useful.
(§5) Incubations were in milk at 37° C.

Assay [4] relates to Listeria monocytogenes. Put plainly: bactericidal activity towards Listeria monocytogenes in milk. The format is cell-based. How it is done: as §1
An example of where the application of nisin is limited by its available activity is illustrated by the data in Table 15B.
as §5

Assay [5] concerns Streptococcus mutans. Put plainly: rapid bactericidal activity towards Streptococcus mutans in the presence of divalent cation, 10% fetal calf serum. The assay is classed as cell-based. As to conditions: nisin 3, no EDTA, CaCl3 0 mM.
Description: as §6
Incubations performed in 10% Fetal Calf Serum at 37° C.

With `O=C([O-])CN(CCN(CC(=O)[O-])CC(=O)O)CC(=O)O.[Na+].[Na+]` [EDTA], the “% Survival at 2 hours” value in [1] (nisin 0, EDTA 1.0 mM, BSA 1.0%, pH 8.0) stood at 27%. Besides, the “% Survival at 2 hours, unadhered cells” value was 6.4% in assay [1] (nisin 0, EDTA 10 mM, pH 5.0) and 5.2% in assay [1] (nisin 0, EDTA 10 mM, pH 8.0). Further, the “% Survival after 2 hr (L. monocytogenes)” value in the assay with Listeria monocytogenes [2] (nisin 0, EDTA 1.0 mM) amounted to 84%. Besides, the “% Survival 2 hr (S. aureus)” value in the assay on Staphyloccus aureus (nisin 0, EDTA 0.3 mM, pH 8.0) is given as 100%; with Staphyloccus aureus (nisin 0, EDTA 1.0 mM, pH 8.0) it was 81%; in the assay with Staphyloccus aureus (nisin 0, EDTA 3.0 mM, pH 5.0), 100%; in the assay on Staphyloccus aureus (nisin 0, EDTA 3.0 mM, pH 8.0), 100%; in the assay with Staphyloccus aureus (nisin 0, EDTA 10 mM, pH 8.0) it was 100%; in the assay with Staphyloccus aureus (nisin 0, EDTA 30 mM, pH 8.0), 100%. Moreover, the “% Survival at 2 hours (K. pneumoniae)” value in the assay on K. pneumoniae (nisin 0, EDTA 20 mM) turned out to be 22%. Also, the “% Survival (S. mutans kinetics)” value in the assay with Streptococcus mutans [3] (incubation 3 min) and in the assay on Streptococcus mutans [3] (incubation 60 min) was 100% in each case. Moreover, the “% Survival at 2 hours (S. typhimurium)” value in the assay on S. typhimurium (nisin 0, EDTA 1.0 mM, BSA 1.0%, 20 mM Tris pH 8.0) stood at 63%; with S. typhimurium (nisin 0, EDTA 2.0 mM, 20 mM Tris pH 8.0), 8.7%; in the assay on S. typhimurium (nisin 0, EDTA 2.0 mM, 50 mM sodium acetate pH 5.0), 38.7%; in the assay with S. typhimurium (nisin 0, EDTA 10 mM, 20 mM Tris pH 8.0), 14%; in the assay with S. typhimurium (nisin 0, EDTA 10 mM, 50 mM sodium acetate pH 5.0), 15.2%; with S. typhimurium (nisin 0, EDTA 50 mM, 20 mM Tris pH 8.0), 11.4%. The “% Survival at 2 hours (S. typhimurium)” value was determined as 3.5% in the assay with S. typhimurium (nisin 0, EDTA 50 mM, 50 mM sodium acetate pH 5.0) and 45% in the assay on S. typhimurium (nisin 0, EDTA 100 mM, 20 mM Tris pH 8.0). For the same compound, in the assay with S. typhimurium (nisin 0, EDTA 20 mM), the “Percentage S. typhimurium Survival at 3 hours” value amounted to 2.5%. For the same compound, in the assay with E. coli (nisin 0, EDTA 1.0 mM, 20 mM Tris pH 7.0), the “% survival at 1 min (E. coli)” value was found to be 100%. The “% Survival 2 hr (Coryneform bacteria)” value in the assay with Coryneform bacteria (nisin 0, EDTA 0.3 mM) came out at 4.6%; in the assay on Coryneform bacteria (nisin 0, EDTA 1.0 mM), 3.6%; in the assay with Coryneform bacteria (nisin 0, EDTA 3.0 mM), 8%; with Coryneform bacteria (nisin 0, EDTA 10 mM), 36%.

In the case of `CCCCCCCCCCCC(=O)OCC(O)CO` (stereo not drawn) [Monolaurin, monolaurin], the “bactericidal activity towards Streptococcus agalactiae” value in the assay with Streptococcus agalactiae (monolaurin at concentrations up to 0.1%) was “little significant bactericidal activity”. In addition, the “% survival at 2 h (S. agalactiae)” value amounted to 100% in the assay on Streptococcus agalactiae (nisin 0, monolaurin 0.01%, 37° C.) and 4.5% with Streptococcus agalactiae (nisin 0, monolaurin 0.1%, 37° C.).

With nisin, the “% Survival at 2 hours, unadhered cells” value turned out to be 0.1% in [1] (nisin 300 μg/ml, EDTA 0, pH 5.0); 7.5% in assay [1] (nisin 300 μg/ml, EDTA 0, pH 8.0); 0.02% in [1] (nisin 300 μg/ml, EDTA 0, pH 8.0, contains 1% BSA). In addition, in the assay on Listeria monocytogenes [4] (nisin 100 μg/ml, monooleate 0, 37° C.), the “% Survival 2 hr (L. monocytogenes)” value was found to be 0.56%. Also, the “% survival at 2 h (S. agalactiae)” value worked out at 100% with Streptococcus agalactiae (nisin 0.02 μg/ml, monolaurin 0, 37° C.) and 2.2% in the assay with Streptococcus agalactiae (nisin 0.2 μg/ml, monolaurin 0, 37° C.). For the same compound, the “bactericidal activity towards Streptococcus agalactiae” value with Streptococcus agalactiae (nisin at concentrations up to 0.2 μg/ml) is “does not exhibit significant bactericidal activity”. Moreover, the “% survival at 1 min. (S. mutans)” value with Streptococcus mutans [5] came to 2.9%. Moreover, in the assay with Listeria monocytogenes [2] (nisin 3.0 μg/ml, EDTA 0), the “% Survival after 2 hr (L. monocytogenes)” value is reported as 0.71%. The “% Survival 2 hr (S. aureus)” value with Staphyloccus aureus (nisin 3.0 μg/ml, EDTA 0, pH 5.0) amounted to 0.6%; in the assay on Staphyloccus aureus (nisin 3.0 μg/ml, EDTA 0, pH 8.0), 7.4%. For the same compound, the “% Survival at 2 hours (K. pneumoniae)” value was 50% in the assay on K. pneumoniae (nisin 100 μg/ml, EDTA 0) and 38% with K. pneumoniae (nisin 300 μg/ml, EDTA 0). Also, the “% Survival after 2 hr (S. mutans)” value with Streptococcus mutans [3] (nisin 0.1 μg/ml, EDTA 0, 20 mM Tris-HCl pH 8.0) is reported as 4.3%. Further, the “% Survival at 2 hours (S. typhimurium)” value turned out to be 51.3% in the assay with S. typhimurium (Table 8 test 1: nisin 10 μg/ml, EDTA 0, BSA 0); 1.6% in the assay with S. typhimurium (Table 8 test 1: nisin 100 μg/ml, EDTA 0, BSA 0); 4% in the assay with S. typhimurium (nisin 100 μg/ml, EDTA 0, 20 mM Tris pH 8.0 (Table 6)); 0.6% in the assay with S. typhimurium (nisin 100 μg/ml, EDTA 0, 50 mM sodium acetate pH 5.0). In addition, the “Percentage S. typhimurium Survival at 3 hours” value came to 51.3% in the assay with S. typhimurium (nisin 10 μg/ml, EDTA 0 mM); 7.0% in the assay with S. typhimurium (nisin 50 μg/ml, EDTA 0 mM); 1.6% with S. typhimurium (nisin 100 μg/ml, EDTA 0 mM). For the same compound, the “Percentage E. coli Survival at 2 hours” value is reported as 27% with E. coli (nisin 30 μg/ml, EDTA 0, Triton X-100 0); 25% with E. coli (nisin 100 μg/ml, EDTA 0, Triton X-100 0); 8.5% in the assay on E. coli (nisin 300 μg/ml, EDTA 0, Triton X-100 0). The “% Survival 2 hr (Coryneform bacteria)” value in the assay with Coryneform bacteria (nisin 3 μg/ml, EDTA 0) came to 0.22%.

Consider Triton X-100, for which, in the assay on E. coli (nisin 0, EDTA 0, Triton X-100 1.0%), the “Percentage E. coli Survival at 2 hours” value is 100%. Also, the “bactericidal activity towards E. coli” value in the assay on E. coli (tests #3 and #4, Table 4) is on record as “no significant bactericidal activity”.

With monooleate, the “bactericidal activity towards L. monocytogenes” value in the assay on Listeria monocytogenes [4] (monooleate by itself) is recorded as “no bactericidal activity”. Besides, the “% Survival 2 hr (L. monocytogenes)” value in the assay on Listeria monocytogenes [4] (nisin 0, monooleate 0.1%, 37° C.) is reported as 67%; in the assay with Listeria monocytogenes [4] (nisin 0, monooleate 1.0%, 37° C.) it was 63%.
